Laboratory results reported in patent publication US10259818B2, “Bicyclic azaheterocyclobenzylamines as PI3K inhibitors” (Incyte Corporation, priority 2012, dated 2019).

Tested on: SUDHL-6 cell line (diffuse large B cell lymphoma)
Assay: SUDHL-6 cell proliferation assay (Example B3)
Assay type: cell-based
Conditions: Homo sapiens, SU-DHL-6, 72 h, SUDHL-6 cells, 3 days, Cell Titer-GLO
Protocol: Example B3: SUDHL-6 Cell Proliferation Assay
SUDHL-6 cell line (diffuse large B cell lymphoma) was purchased from ATCC (Manassas, Va.) and maintained in the culture medium recommended (RPMI and 10% FBS). To measure the anti-proliferation activity of the compounds through ATP quantitation, the SUDHL-6 cells was plated with the culture medium (5000 cells/well/per 200 μl) into 96-well polystyrene clear black tissue culture plate (Greiner-bio-one through VWR, NJ) in the presence or absence of a concentration range of test compounds. After 3 days, Cell Titer-GLO Luminescent (Promega, Madison, Wis.) cell culture agent was added to each well for 10 minutes at room temperature to stabilize the luminescent signal. This determines the number of viable cells in culture based on quantitation of the ATP present, which signals the presence of metabolically active cells. Luminescence was measured with the TopCount 384 (Packard Bioscience through Perkin Elmer, Boston, Mass.). […] IC50 data for the Examples is presented in Table 4 determined by the assay of Example B3.

IC50 [nM] | SMILES
≤ 500 | Cc1nn(C(C)c2cc(Cl)c(F)c3c2OC(C)CN(C2CN(C(=O)OC(C)(C)C)C2)C3)c2ncnc(N)c12 (single isomer, unassigned) [Example 26, tert-Butyl 3-[9-[1-(4-amino-3-methyl-1H-pyrazolo[3,4-d]pyrimidin-1-yl)ethyl]-7-chloro-6-fluoro-2-methyl-2,3-dihydro-1,4-benzoxazepin-4(5H)-yl]azetidine-1-carboxylate]
≤ 500 | Cc1nn(C(C)c2cc(Cl)c(F)c3c2O[C@@H](C)CN(C2CC(C(N)=O)C2)C3)c2ncnc(N)c12 (single isomer, unassigned) [Example 44]
500 to 1000 | CC(=O)N1CC(N2Cc3c(C#N)c(Cl)cc(C(C)n4nc(C)c5c(N)ncnc54)c3OC(C)C2)C1 (single isomer, unassigned) [Example 48, 4-(1-Acetylazetidin-3-yl)-9-[1-(4-amino-3-methyl-1H-pyrazolo [3,4-d]pyrimidin-1-yl)ethyl]-7-chloro-2-methyl-2,3,4,5-tetrahydro-1,4-benzoxazepine-6-carbonitrile]
≤ 500 | Cc1nn(C(C)c2cc(Cl)c(C#N)c3c2OC(C)CN(C2CN(CC(N)=O)C2)C3)c2ncnc(N)c12 (single isomer, unassigned) [Example 50, 2-{3-[9-[1-(4-Amino-3-methyl-1H-pyrazolo[3,4-d]pyrimidin-1-yl)ethyl]-7-chloro-6-cyano-2-methyl-2,3-dihydro-1,4-benzoxazepin-4(5H)-yl]azetidin-1-yl}acetamide]
≤ 500 | Cc1nn(C(C)c2cc(Cl)c(C#N)c3c2OC(C)CN(C2CN(CC(N)=O)C2)C3)c2ncnc(N)c12 (single isomer, unassigned) [Example 53, 2-{3-[9-[1-(4-Amino-3-methyl-1H-pyrazolo[3,4-d]pyrimidin-1-yl)ethyl]-7-chloro-6-cyano-2-methyl-2,3-dihydro-1,4-benzoxazepin-4(5H)-yl]azetidin-1-yl}acetamide]
≤ 500 | COC(=O)N1CC(N2Cc3c(F)c(Cl)cc(C(C)n4nc(C)c5c(N)ncnc54)c3OC(C)C2)C1 (single isomer, unassigned) [Example 80, methyl 3-[9-[1-(4-amino-3-methyl-1H-pyrazolo[3,4-d]pyrimidin-1-yl)ethyl]-7-chloro-6-fluoro-2-methyl-2,3-dihydro-1,4-benzoxazepin-4(5H)-yl]azetidine-1-carboxylate]
≤ 500 | Cc1nn(C(C)c2cc(Cl)c(F)c3c2OC(C)CN(C2CN(S(N)(=O)=O)C2)C3)c2ncnc(N)c12 (single isomer, unassigned) [Example 82, 3-[9-[1-(4-amino-3-methyl-1H-pyrazolo[3,4-d]pyrimidin-1-yl)ethyl]-7-chloro-6-fluoro-2-methyl-2,3-dihydro-1,4-benzoxazepin-4(5H)-yl]azetidine-1-sulfonamide]
≤ 500 | Cc1nn(C(C)c2cc(Cl)c(F)c3c2OC(C)CN(C2CN(C(N)=O)C2)C3)c2ncnc(N)c12 (single isomer, unassigned) [Example 83, 3-[9-[1-(4-amino-3-methyl-1H-pyrazolo[3,4-d]pyrimidin-1-yl)ethyl]-7-chloro-6-fluoro-2-methyl-2,3-dihydro-1,4-benzoxazepin-4(5H)-yl]azetidine-1-carboxamide]
≤ 500 | Cc1nn(C(C)c2cc(Cl)c(F)c3c2O[C@@H](C)CN(C2CN(CC(N)=O)C2)C3)c2ncnc(N)c12 (single isomer, unassigned) [Example 88]
≤ 500 | CCC(=O)N1CC(N2Cc3c(C#N)c(Cl)cc(C(C)n4nc(C)c5c(N)ncnc54)c3OC(C)C2)C1 (single isomer, unassigned) [Example 95, 9-[1-(4-amino-3-methyl-1H-pyrazolo[3,4-d]pyrimidin-1-yl)ethyl]-7-chloro-2-methyl-4-(1-propionylazetidin-3-yl)-2,3,4,5-tetrahydro-1,4-benzoxazepine-6-carbonitrile]

The remaining lines, values behind:

SMILES | IC50 [nM]
Cc1nn(C(C)c2cc(Cl)c(F)c3c2OC[C@H](C)N(S(C)(=O)=O)C3)c2ncnc(N)c12 (single isomer, unassigned) [Example 35] | ≤ 500
Cc1nn(C(C)c2cc(Cl)c(C#N)c3c2OC(C)CN(C2CN(CC(C)(C)O)C2)C3)c2ncnc(N)c12 (single isomer, unassigned) [Example 54, 9-[1-(4-Amino-3-methyl-1H-pyrazolo[3,4-d]pyrimidin-1-yl)ethyl]-7-chloro-4-[1-(2-hydroxy-2-methylpropyl)azetidin-3-yl]-2-methyl-2,3,4,5-tetrahydro-1,4-benzoxazepine-6-carbonitrile] | ≤ 500
Cc1nn(C(C)c2cc(Cl)c(C#N)c3c2OC(C)CN(Cc2cccnc2)C3)c2ncnc(N)c12 (single isomer, unassigned) [Example 60, 9-[1-(4-Amino-3-methyl-1H-pyrazolo[3,4-d]pyrimidin-1-yl)ethyl]-7-chloro-2-methyl-4-(pyridin-3-ylmethyl)-2,3,4,5-tetrahydro-1,4-benzoxazepine-6-carbonitrile] | ≤ 500
Cc1nn(C(C)c2cc(Cl)c(C#N)c3c2OC(C)CN(CC(C)(C)O)C3)c2ncnc(N)c12 (single isomer, unassigned) [Example 65, 9-[1-(4-Amino-3-methyl-1H-pyrazolo[3,4-d]pyrimidin-1-yl)ethyl]-7-chloro-4-(2-hydroxy-2-methylpropyl)-2-methyl-2,3,4,5-tetrahydro-1,4-benzoxazepine-6-carbonitrile] | ≤ 500
CC(=O)NC1CC(N2Cc3c(C#N)c(Cl)cc(C(C)n4nc(C)c5c(N)ncnc54)c3OC(C)C2)C1 (single isomer, unassigned) [Example 67, N-{3-[9-[1-(4-Amino-3-methyl-1H-pyrazolo[3,4-d]pyrimidin-1-yl)ethyl]-7-chloro-6-cyano-2-methyl-2,3-dihydro-1,4-benzoxazepin-4(5H)-yl]cyclobutyl}acetamide] | ≤ 500
CCC1CN(CCO)Cc2c(C#N)c(Cl)cc(C(C)n3nc(C)c4c(N)ncnc43)c2O1 (single isomer, unassigned) [Example 69, 9-[1-(4-Amino-3-methyl-1H-pyrazolo[3,4-d]pyrimidin-1-yl)ethyl]-7-chloro-2-ethyl-4-(2-hydroxyethyl)-2,3,4,5-tetrahydro-1,4-benzoxazepine-6-carbonitrile] | ≤ 500
Cc1nn(C(C)c2cc(Cl)c(F)c3c2OC(C)CN(C[C@@H](C)O)C3)c2ncnc(N)c12 (single isomer, unassigned) [Example 78] | ≤ 500
Cc1nn(C(C)c2cc(Cl)c(C#N)c3c2OC(C)CN(C2CN(S(C)(=O)=O)C2)C3)c2ncnc(N)c12 (single isomer, unassigned) [Example 93, 9-[1-(4-amino-3-methyl-1H-pyrazolo[3,4-d]pyrimidin-1-yl)ethyl]-7-chloro-2-methyl-4-[1-(methylsulfonyl)azetidin-3-yl]-2,3,4,5-tetrahydro-1,4-benzoxazepine-6-carbonitrile] | ≤ 500

Same assay, conditions: SUDHL-6 cells, 3 days, Cell Titer-GLO

IC50 [nM] | SMILES
≤ 500 | Cc1nn(C(C)c2cc(Cl)c(C#N)c3c2OC(C)CN(C2CN(CC(C)(C)O)C2)C3)c2ncnc(N)c12 (single isomer, unassigned) [Example 55, 9-[1-(4-Amino-3-methyl-1H-pyrazolo[3,4-d]pyrimidin-1-yl)ethyl]-7-chloro-4-[1-(2-hydroxy-2-methylpropyl)azetidin-3-yl]-2-methyl-2,3,4,5-tetrahydro-1,4-benzoxazepine-6-carbonitrile]
≤ 500 | Cc1nn(C(C)c2cc(Cl)c(C#N)c3c2OC(C)CN(CC(C)(C)O)C3)c2ncnc(N)c12 (single isomer, unassigned) [Example 66, 9-[1-(4-Amino-3-methyl-1H-pyrazolo[3,4-d]pyrimidin-1-yl)ethyl]-7-chloro-4-(2-hydroxy-2-methylpropyl)-2-methyl-2,3,4,5-tetrahydro-1,4-benzoxazepine-6-carbonitrile]
≤ 500 | CC(=O)NC1CC(N2Cc3c(C#N)c(Cl)cc(C(C)n4nc(C)c5c(N)ncnc54)c3OC(C)C2)C1 (single isomer, unassigned) [Example 68, N-{3-[9-[1-(4-Amino-3-methyl-1H-pyrazolo[3,4-d]pyrimidin-1-yl)ethyl]-7-chloro-6-cyano-2-methyl-2,3-dihydro-1,4-benzoxazepin-4(5H)-yl]cyclobutyl}acetamide]
≤ 500 | CCC1CN(CCO)Cc2c(C#N)c(Cl)cc(C(C)n3nc(C)c4c(N)ncnc43)c2O1 (single isomer, unassigned) [Example 70, 9-[1-(4-Amino-3-methyl-1H-pyrazolo[3,4-d]pyrimidin-1-yl)ethyl]-7-chloro-2-ethyl-4-(2-hydroxyethyl)-2,3,4,5-tetrahydro-1,4-benzoxazepine-6-carbonitrile]
≤ 500 | Cc1nn(C(C)c2cc(Cl)c(F)c3c2OC(C)CN(C2CN(C(N)=O)C2)C3)c2ncnc(N)c12 (single isomer, unassigned) [Example 84, 3-[9-[1-(4-amino-3-methyl-1H-pyrazolo[3,4-d]pyrimidin-1-yl)ethyl]-7-chloro-6-fluoro-2-methyl-2,3-dihydro-1,4-benzoxazepin-4(5H)-yl]azetidine-1-carboxamide]
≤ 500 | Cc1nn(C(C)c2cc(Cl)c(C#N)c3c2OC(C)CN(C2CN(S(C)(=O)=O)C2)C3)c2ncnc(N)c12 (single isomer, unassigned) [Example 94, 9-[1-(4-amino-3-methyl-1H-pyrazolo[3,4-d]pyrimidin-1-yl)ethyl]-7-chloro-2-methyl-4-[1-(methylsulfonyl)azetidin-3-yl]-2,3,4,5-tetrahydro-1,4-benzoxazepine-6-carbonitrile]
